In patent publication US7803823B2, “2-amino-4,5-trisubstituted thiazolyl derivatives” (Janssen Pharmaceutica NV, priority 2001, dated 2010):

How the values were obtained:
[1] = system: TNF-α production; assay: In vitro inhibition of TNF-α production in human blood (LPS-stimulated whole blood, sandwich ELISA); type: cell-based; details: lipopolysaccharide 100 ng/ml, 6 hours, read-out: % inhib. TNF-α
Experimental: (§1) Peripheral blood from healthy male donors was drawn into heparinized syringes (12.5 U heparin/ml). Blood samples were three-fold diluted in RMPI 1640 medium (Life Technologies, Belgium) supplemented with 2 mM L-glutamine, 100 U/ml penicillin and 100 μg/ml streptomycin, and 300 μl fractions were distributed in 24-well multidisc plates (Nunc, Roskilde, Denmark). Blood samples were preincubated (60 minutes at 37° C.) in a humidified 6% CO2-atmosphere with 100 μl of drug solvent (final concentration 0.02% dimethylsulfoxide in RPMI 1640) or with 100 μl of an appropriate dose of test compound before being stimulated by the addition of 100 μl of lipopolysaccharide at a final concentration of 100 ng/ml. After 6 hours, cell-free supernatant fluids were collected by centrifugation and stored at −20° C. until tested for the presence of TNF-α.
(§2) Cytokine protein concentrations were determined by sandwich ELISA as described in Van Wauwe et al. (1996, Inflamm Res, 45, 357-363). Murine monoclonals used as capture antibodies to human cytokines were obtained from R&D Systems (Abingdon, United Kingdom) and code named MAB210 and MAB611 for TNF-α and IL-12 respectively. Biotinylated goat polyclonal antibodies used to detect human cytokines were from R&D Systems (BAF210, BAF219). Cytokine levels were calculated from standard curves using recombinant cytokines supplied by R&D Systems.

[2] = system: IL-12p40 production; assay: In vitro inhibition of IL-12p40 production in human blood (LPS-stimulated whole blood, sandwich ELISA); type: cell-based; details: lipopolysaccharide 100 ng/ml, 24 hours, read-out: % inhib. IL-12 (p40); for inhibition at 1 µM: test dose 1 × 10^−6 M
Experimental: as §1, with “After 24” for “After 6”, “of IL-12p40.” for “of TNF-α.”
as §2

Question: Which inhibition at 1 µM ([1]; test dose 1 × 10^−6 M) does the source give for `Fc1sc(Nc2cccc(C(F)(F)F)c2)nc1-c1cccnc1` [Compound 1] here?
Answer: Its inhibition at 1 µM is 60%.

Question: And the inhibition at 0.1 µM ([1]; test dose 1 × 10^−7 M)?
Answer: Its inhibition at 0.1 µM is 58%.

Question: What about the inhibition at 1 µM [2] of the same compound?
Answer: Its inhibition at 1 µM is 54%.

Question: What about the inhibition at 0.1 µM ([2]; test dose 1 × 10^−7 M) of the same compound?
Answer: Its inhibition at 0.1 µM is 56%.

Question: And the melting point?
Answer: Its melting point is 208 to 210 °C.

Question: For `CC(O)c1sc(Nc2cccc(C(F)(F)F)c2)nc1-c1cccnc1` (stereo not drawn) [Compound 14], which inhibition at 1 µM [2] is on record?
Answer: The inhibition at 1 µM was 52%.
